{
  "source": "patent US6602532B2",
  "about": "“Process of preserving food and food preservative” (F.G.A. Laboratories Flavourence Corporation, priority 2000, dated 2003)",
  "key": {"S. typhimurium": {"test_system": "S. typhimurium", "test": "Growth curve by turbidity at 660 nm", "type": "cell-based, Salmonella typhimurium", "protocol": "(§1) (iii) L-serine or D-serine as the amino acid was dissolved in sterilized purified water and added with bacteria solutions (B. subtilis and S. typhimurium) of the same amount and then introduced in test tubes. 1 ml of each solution was inoculated on a 9 ml DM medium (partially modified) so that final serine concentration would be 0.5% (w/v). Turbidity of the medium added with the bacteria solution and serine was measured on 660 nm at 37° C. for 10 hours immediately after the inoculation and then growth curves of B. subtilis and S. typhimurium were formed.\n(§2) As a control, turbidity was measured on a medium merely added with sterilized purified water instead of serine.\n(§3) (ii) Turbidity was measured on 660 nm for 8 hours immediately after the inoculation and growth curves of S. typhimurium and B. subtilis were formed in substantially the same manner as the above-described (1)-(iii), except that only L-serine or D-serine of 0.5% (w/v), or L-serine or D serine of 0.5% (w/v) in combination with protamine of 0.03% (w/v), each at the final concentration, were added and solutions of S. typhimurium and B. subtilis were used.\n(§4) With compounds shown in FIGS. 14, 16 and 18, growth curves of S. typhimurium, B. subtilis and E. coli were formed in substantially the same manner as the above-described (1)-(111), respectively. The results are shown in FIGS. 14, 16 and 18, respectively. For comparison, the compounds were solely used without L-serine and the growth curves of S. typhimurium, B. subtilis and E. coli were formed. The results are shown in FIGS. 15, 17 and 19, respectively."}, "B. subtilis": {"test_system": "B. subtilis", "test": "Growth curve by turbidity at 660 nm", "type": "cell-based, Bacillus subtilis", "settings": "for proliferation of B. subtilis compared with the control: serine 0.5% (w/v), 37° C., 10 hours, turbidity 660 nm, FIG. 3", "protocol": "as §1, §2, §3\nGrowth curves of B. subtilis were formed in the same manner as the above-described (4) except that protamine of 0.03% (w/v) was replaced with lysozyme of 0.1% (w/v).\nas §4"}, "B. subtilis MF920": {"test_system": "B. subtilis MF920", "test": "Survival rate (viable cell count) after addition of amino acids and heat treatment", "type": "cell-based, Bacillus subtilis", "settings": "heated at 80° C. for 10 minutes; for viable cell count compared with sterilized purified water alone: amino acid 1% (w/v), FIG. 5", "protocol": "In the same manner as the above-mentioned (1)-(i), additives of glycine, L-alanine, L-serine, L-lysine monohydrochloride, L-threonine and L-arginine monohydrochloride were dissolved in sterilized purified water, respectively to prepare amino acid solutions of 10% (w/v). Then a bacteria solution (B. subtilis MF920) was added to 1 ml of each of the amino acid solutions so that amino acid concentration in each tube would be 1% (w/v).\nThe test tubes were heated at 80° C. for 10 minutes and then quenched. Then, 10 fold dilutions of the obtained bacteria solutions were prepared.\n0.1 ml of each dilution was inoculated on three dishes and incubated 2 days to count expressed colonies. The survival rate was measured in the same manner as described above.\nChange in the bacteria survival rate was examined in the same manner as the above-mentioned (2) except that the concentration of L-serine was varied within 0.01 to 1% (w/v)."}, "E. coli [1]": {"test_system": "E. coli", "test": "E. coli survival rate after heat treatment in the presence of casein", "type": "cell-based, Escherichia coli", "settings": "L-serine 1% (w/v), casein 1 to 4% (w/v), heated at 40° C. for 10 minutes; FIG. 11", "protocol": "L-serine of 0% or 1% (w/v), casein of 1 to 4% (w/v) and a 802 growth medium were added in test tubes. The test tubes were heated at 40° C. for 10 minutes and quenched. 10-fold dilutions of the resulting solutions were prepared. 0.1 ml of each of the dilutions was inoculated on three dishes, incubated for one day and expressed colonies were counted to examine change in the E. coli survival rate."}, "E. coli [2]": {"test_system": "E. coli", "test": "Survival rate of E. coli after addition of L- or D-serine, with or without heat treatment", "type": "cell-based, Escherichia coli", "settings": "serine 0.5% (w/v), FIG. 2", "protocol": "(i) Glycine, L-alanine, L-serine, L-lysine monohydrochloride, L threonine or L-arginine monohydrochloride was put in test tubes as an additive, respectively, and dissolved in sterilized purified water to prepare amino acid solutions of 10% (w/v). To 1 ml of each of the amino acid solutions 9 ml of the bacteria solution was added so that the concentration of each amino acid would be 1% (w/v).\nThe test tubes containing these amino acids and the bacteria solution were allowed to stand at room temperature for 10 minutes and 10^4 fold dilutions were obtained from the resulting solutions.\n0.1 ml of each dilution was inoculated on three dishes and incubated for 2 days to count the number of expressed colonies as the viable cell count.\nIn the same manner as described above, a 10^4 fold dilution prepared without adding amino acid was used as a blank and incubated to count expressed colonies as the viable cell count.\nAs a survival rate, the viable cell count of bacteria added with amino acid with respect to the viable cell count measured in the blank was measured.\n(ii) The survival rate of E. coli was measured in the same manner as described above except that L-serine and D-serine of 0.5% (w/v) as the amino acids and an E. coli solution as the bacteria solution were used."}, "[3]": {"test": "Amino acid analysis of L-serine after a heat treatment", "type": "physicochemical", "settings": "for L-serine concentration: nominal 2 nmol/10 μl", "protocol": "L-serine was added in 1% (w/v) to the bacteria solution and to the medium used in the above. The obtained bacteria culture solution and medium were divided in two test tubes, respectively. One of them was allowed to stand at room temperature for 10 minutes and the other was heated at 80° C. for 10 minutes. Both were quenched and diluted so that the L-serine concentration would be 2 nmol/10 μl and amino acid analysis was carried out with an amino acid automatic analyzer."}, "E. coli [4]": {"test_system": "E. coli", "test": "Growth curve by turbidity at 660 nm", "type": "cell-based, Escherichia coli", "settings": "L-serine 1.5% (w/v) solely, 8 hours; FIG. 7", "protocol": "as §1, §2\n(i) Turbidity of the medium was measured on 660 nm for 8 hours immediately after the inoculation and the growth curve of E. coli was formed in the same manner as the above-described (1)-(iii) except that L-serine of 1.5% (w/v), or L-serine or D-serine of 1.5% (w/v) and protamine of 0.1% (w/v), each at the final concentration, were added and an E. coli solution was used.\nWith compounds shown in FIGS. 14, 16 and 18, growth curves of S. typhimurium, B. subtilis and E. coli were formed in substantially the same manner as the above-described (1)-(111), respectively. The results are shown in FIGS. 14, 16 and 18, respectively. […]"}, "Escherichia coli": {"test_system": "Escherichia coli", "settings": "in the presence of ethanol; cited from earlier work"}, "[5]": {"settings": "serine 0.5% (w/v) only, 8 hours, FIG. 8"}, "[6]": {"settings": "serine 0.5% (w/v), 37° C., 10 hours, turbidity 660 nm, FIG. 4"}},
  "note": "“Also recorded” adds a separate entry of the source.",
  "data": [
    {"compound": "N[C@H](CO)C(=O)O", "note": "[D-serine]", "values": [
      {"measurement": "proliferation of S. typhimurium relative to the control", "setting": "S. typhimurium; [5]", "value": "about 80%"},
      {"measurement": "proliferation of S. typhimurium relative to the control", "setting": "S. typhimurium; [6]", "value": "about 80%"},
      {"measurement": "proliferation of B. subtilis relative to the control", "setting": "B. subtilis; serine 0.5% (w/v) only, 8 hours, FIGS. 9 and 10", "value": "about 50%"},
      {"measurement": "proliferation of B. subtilis compared with the control", "setting": "B. subtilis", "value": 80, "unit": "%"}
    ]},
    {"compound": "C[C@H](N)C(=O)O", "note": "[L-alanine]", "values": [
      {"measurement": "viable cell count compared with sterilized purified water alone", "setting": "B. subtilis MF920", "value": "slightly reduced"}
    ]},
    {"compound": "Cl.N=C(N)NCCC[C@H](N)C(=O)O", "note": "[L-arginine, L-arginine monohydrochloride]", "values": [
      {"measurement": "viable cell count compared with sterilized purified water alone", "setting": "B. subtilis MF920", "value": "increase"}
    ]},
    {"compound": "Cl.NCCCC[C@H](N)C(=O)O", "note": "[L-lysine, L-lysine monohydrochloride]", "values": [
      {"measurement": "viable cell count compared with sterilized purified water alone", "setting": "B. subtilis MF920", "value": "increase"}
    ]},
    {"compound": "N[C@@H](CO)C(=O)O", "note": "[L-serine]", "values": [
      {"measurement": "E. coli proliferation in the presence of casein", "setting": "E. coli [1]", "value": "effective inhibition"},
      {"measurement": "survival rate as a function of L-serine concentration", "setting": "B. subtilis MF920; L-serine 0.01 to 1% (w/v), FIG. 6", "value": "the higher the L-serine concentration was, the more the survival rate decreased"},
      {"measurement": "viable cell count compared with sterilized purified water alone", "setting": "B. subtilis MF920", "value": "remarkably reduced; also recorded: greatest reduction"},
      {"measurement": "bacteria proliferation after heat treatment", "setting": "E. coli [2]; heat treatment at 80° C. for 10 minutes", "value": "further inhibited"},
      {"measurement": "bacteria proliferation relative to the blank", "setting": "E. coli [2]; no heat treatment", "value": "about 30%"},
      {"measurement": "proliferation of S. typhimurium relative to the control", "setting": "S. typhimurium; [5]", "value": "about 80%"},
      {"measurement": "proliferation of S. typhimurium relative to the control", "setting": "S. typhimurium; [6]", "value": "about 80%"},
      {"measurement": "decomposition by heating", "setting": "[3]; 80° C. for 10 minutes, regardless of the presence of bacteria", "value": "would not be decomposed"},
      {"measurement": "L-serine concentration", "setting": "[3]; bacteria solution heated (80° C., 10 minutes)", "value": 2.3, "unit": "nmol/10 μl"},
      {"measurement": "L-serine concentration", "setting": "[3]; bacteria solution unheated (room temperature 10 minutes)", "value": 2.3, "unit": "nmol/10 μl"},
      {"measurement": "L-serine concentration", "setting": "[3]; medium heated (80° C., 10 minutes)", "value": 2.3, "unit": "nmol/10 μl"},
      {"measurement": "L-serine concentration", "setting": "[3]; medium unheated (room temperature 10 minutes)", "value": 2.2, "unit": "nmol/10 μl"},
      {"measurement": "proliferation of E. coli relative to the control", "setting": "E. coli [4]", "value": "about 40%"},
      {"measurement": "proliferation of B. subtilis compared with the control", "setting": "B. subtilis", "value": "about 10%"}
    ]},
    {"compound": "C[C@@H](O)[C@H](N)C(=O)O", "note": "[L-threonine]", "values": [
      {"measurement": "viable cell count compared with sterilized purified water alone", "setting": "B. subtilis MF920", "value": "increase"}
    ]},
    {"compound": "NCC(=O)O", "note": "[glycine]", "values": [
      {"measurement": "viable cell count compared with sterilized purified water alone", "setting": "B. subtilis MF920", "value": "slightly reduced"},
      {"measurement": "bacteriostasis to Escherichia coli", "setting": "Escherichia coli", "value": "shows bacteriostasis"}
    ]}
  ]
}
